Experimental data published in patent publication US7645802B2 (Biovail Laboratories International SRL., priority 2005, dated 2010).

Legend:
Rj: Wistar (Han) rats = test: EEG trace monitoring and behavioural observations in conscious rats; details: rat, in vivo, ip
Description: The effects of the two bupropion salt forms hydrochloride and hydrobromide on central nervous system activity after intraperitoneal administration were evaluated by means of EEG trace monitoring in conscious rats. The method which detects electroencephalographic activity in conscious rats follows that described by Dürmüller et al., (2000) Vigilance-Controlled Quantified EEG in Safety Pharmacology, Current Protocols in Pharmacology Unit 10.6. The study was conducted at Porsolt & Partners Pharmacology, Research Laboratory, Z. A. des Suhards—B.P. 9, 53940 Le Genest-Saint-Isle, France.
Substances: The formulation excipient used was physiological saline (Laboratoire Aguettant). […] All substances were stored in a dry, dark, controlled access area and maintained at a controlled ambient temperature of about 20±3° C. The vehicle solutions were stored at about +4° C. The substances were administered in a volume of 5 ml/kg body weight. The doses of bupropion hydrochloride are expressed in mg/kg of salt. […] The substances were dissolved in physiological saline and prepared freshly at each day of experimentation.
Test systems: The rats used were male Rj: Wistar (Han) rats, weighing from about 280 g to 324 g at the time of implantation. They were supplied by Elevage Janvier, 53940 Le Genest-Saint-Isle, France. […] Upon delivery to the laboratory, the animals were housed in groups of 5 animals maximum, in macrolon cages (44×28×19 cm) containing wood litter (Litalabo—SPPS, 95100 Argenteuil, France). The animals had free access to food (Code 113—SAFE, 89290 Augy, France) and tap water. The animal house was maintained under artificial lighting (12 hrs) from 7:00 to 19:00 in a controlled ambient temperature of about 21±3° C. and relative humidity maintained at from about 30% to about 80%. […] Except during the test sessions, the animals had free access to food (Code 113) and tap water. The animals were identified by marking the connector fixed on the animal's head with an indelible pen. Rats were sacrificed at the end of the experiments by lethal injection of pentobarbital (>100 mg/kg i.p.). Animals were not submitted to necropsy. There is no reason to expect that contaminants were present in the feed, water or bedding at levels capable of interfering with the results of the tests. No checks were performed for this particular study.
Electrode implantation procedure: Implantation surgery was carried out under aseptic conditions. Rats, anesthetized with sodium pentobarbital (60 mg/kg i.p., plus supplementary doses of from about 5 mg/kg to about 10 mg/kg to maintain anesthesia until surgery completion) were implanted with 2 surface EEG electrodes, comprised of miniature titanium screws, placed bilaterally over the frontal-parietal cortex and 2 depth electrodes, comprised of twisted platinium-iridium wires, placed stereotaxically into the hippocampus CA3 area (Paxinos and Watson coordinates interaural: AP+5.0 mm, L±2.5 mm, V+7.0 mm). An additional screw, placed over the right occipital cortex, served as ground electrode. The electrodes were connected to small plugs and the whole assembly was secured on the skull with dental acrylate.
Apparatus: For the EEG recording, the animals were placed in rectangular Plexiglas cubicles (30×10×25 cm) mounted on treadmills. Five recording units were run in parallel. A turning commutator was attached above the centre of each cubicle, about 30 cm above walking level. On one side, it was connected via an electrically shielded multicore cable to the animal and on the other side to the signal conditioning system (Coulbourn Model V75-01). The system filters were set for all channels to high pass 1 Hz and low pass 150 Hz, respectively. The amplification levels were kept at from 1000× to 10000×. The EEG signals were acquired and processed on a PC (DELL GX620-2800) installed with a 16 channel 200 kHz/12-bit AD acquisition card (NI PCI-6023E).

rat = details: 100 mg/kg i.p., long seizure activity

CC(NC(C)(C)C)C(=O)c1cccc(Cl)c1.Cl (racemic) [bupropion hydrochloride, (±)-1-(3-chlorophenyl)-2-[(1,1-dimethylethyl)amino]-1-propanone hydrochloride]
−: BEHAVIOR Facial clonus (Rj: Wistar (Han) rats; 10 mg/kg) | BEHAVIOR Forelimb clonus (Rj: Wistar (Han) rats; 10 mg/kg) | BEHAVIOR Head twitches (Rj: Wistar (Han) rats; 10 mg/kg) | BEHAVIOR Hyperactivity Sterotypies (Rj: Wistar (Han) rats; 10 mg/kg) | BEHAVIOR Rearing (Rj: Wistar (Han) rats; 10 mg/kg) | BEHAVIOR Wholebody clonus (Rj: Wistar (Han) rats; 10 mg/kg) | EEG ANALYSIS Burst cx (Rj: Wistar (Han) rats; 10 mg/kg) | EEG ANALYSIS Burst hipp (Rj: Wistar (Han) rats; 10 mg/kg) | EEG ANALYSIS Complex spike cx (Rj: Wistar (Han) rats; 10 mg/kg) | EEG ANALYSIS Complex spike hipp (Rj: Wistar (Han) rats; 10 mg/kg) | EEG ANALYSIS High amplitude fast frequency cx (Rj: Wistar (Han) rats; 10 mg/kg) | EEG ANALYSIS High amplitude fast frequency hipp (Rj: Wistar (Han) rats; 10 mg/kg) | EEG ANALYSIS High frequency burst activity hipp (Rj: Wistar (Han) rats; 10 mg/kg) | EEG ANALYSIS Long seizure activity cx (Rj: Wistar (Han) rats; 10 mg/kg) | EEG ANALYSIS Long seizure activity hipp (Rj: Wistar (Han) rats; 10 mg/kg) | EEG ANALYSIS Post ictual activity cx (Rj: Wistar (Han) rats; 10 mg/kg) | EEG ANALYSIS Post ictual activity hipp (Rj: Wistar (Han) rats; 10 mg/kg) | EEG ANALYSIS Repetitive isolated spike cx (Rj: Wistar (Han) rats; 10 mg/kg) | EEG ANALYSIS Repetitive isolated spike hipp (Rj: Wistar (Han) rats; 10 mg/kg) | EEG ANALYSIS Sharp waves cx (Rj: Wistar (Han) rats; 10 mg/kg) | EEG ANALYSIS Sharp waves hipp (Rj: Wistar (Han) rats; 10 mg/kg) | EEG ANALYSIS Short seizure activity cx (Rj: Wistar (Han) rats; 10 mg/kg) | EEG ANALYSIS Short seizure activity hipp (Rj: Wistar (Han) rats; 10 mg/kg) | EEG ANALYSIS Spike-and-waves cx (Rj: Wistar (Han) rats; 10 mg/kg) | EEG ANALYSIS Spike-and-waves hipp (Rj: Wistar (Han) rats; 10 mg/kg) | BEHAVIOR Facial clonus (Rj: Wistar (Han) rats; 30 mg/kg) | BEHAVIOR Forelimb clonus (Rj: Wistar (Han) rats; 30 mg/kg) | BEHAVIOR Head twitches (Rj: Wistar (Han) rats; 30 mg/kg) | BEHAVIOR Rearing (Rj: Wistar (Han) rats; 30 mg/kg) | BEHAVIOR Wholebody clonus (Rj: Wistar (Han) rats; 30 mg/kg) | EEG ANALYSIS Sharp waves cx (Rj: Wistar (Han) rats; 30 mg/kg) | EEG ANALYSIS Sharp waves hipp (Rj: Wistar (Han) rats; 30 mg/kg) | EEG ANALYSIS Spike-and-waves cx (Rj: Wistar (Han) rats; 30 mg/kg) | EEG ANALYSIS Spike-and-waves hipp (Rj: Wistar (Han) rats; 30 mg/kg) | BEHAVIOR Facial clonus (Rj: Wistar (Han) rats; 60 mg/kg) | BEHAVIOR Forelimb clonus (Rj: Wistar (Han) rats; 60 mg/kg) | BEHAVIOR Head twitches (Rj: Wistar (Han) rats; 60 mg/kg) | BEHAVIOR Rearing (Rj: Wistar (Han) rats; 60 mg/kg) | BEHAVIOR Wholebody clonus (Rj: Wistar (Han) rats; 60 mg/kg) | EEG ANALYSIS Sharp waves cx (Rj: Wistar (Han) rats; 60 mg/kg) | EEG ANALYSIS Sharp waves hipp (Rj: Wistar (Han) rats; 60 mg/kg) | EEG ANALYSIS Spike-and-waves cx (Rj: Wistar (Han) rats; 60 mg/kg) | EEG ANALYSIS Spike-and-waves hipp (Rj: Wistar (Han) rats; 60 mg/kg) | EEG ANALYSIS Spike-and-waves cx (Rj: Wistar (Han) rats; 100 mg/kg) | EEG ANALYSIS Spike-and-waves hipp (Rj: Wistar (Han) rats; 100 mg/kg)
10: NUMBER OF ANIMALS WITH SEIZURE ACTIVITY (rat; 10 rats per group, HBr dose in HCl molar equivalent)
33 ± 3: DURATION OF INITIAL SEIZURE CORTEX mean ± s.e.m. (rat)
+: BEHAVIOR Hyperactivity Sterotypies (Rj: Wistar (Han) rats; 30 mg/kg) | BEHAVIOR Hyperactivity Sterotypies (Rj: Wistar (Han) rats; 60 mg/kg) | BEHAVIOR Facial clonus (Rj: Wistar (Han) rats; 100 mg/kg)
25 ± 4: DURATION OF INITIAL SEIZURE HIPPOCAMPUS mean ± s.e.m. (rat)
